# According to US4550172A, “Novel heterocyclic compounds as antiallergic agents” (American Home Products Corporation, priority 1984, dated 1985):
# Tested on: LTD4 induced bronchoconstriction
# Assay: inhibition of LTD4-induced bronchospasm in guinea pigs (SRS-A antagonist properties)
# Format: in vivo, guinea pigs (male Hartley strain)
# Settings: LTD4 for induction, compound 50 mg/kg intraduodenal, 10 minutes before induction of bronchospasm
# Description: The assay of this Example measures the in vivo ability of the components of the invention to inhibit the bronchospasm induced in guinea pigs by the exogenously administered leukotrienes C4 and/or D4. This assay is essentially a measure of the SRS-A antagonist properties of the compounds tested.
# This assay is carried out as follows:
# Male Hartley strain guinea pigs (350-600 g) are anesthetized with pentobarbital sodium (50 mg/kg, i.p.). The jugular vein is cannulated for injection of drugs and the carotid artery for monitoring blood pressure. The trachea is cannulated for artificial ventilation by a miniature Starling pump and for indirect measurement of respiratory volume changes as described infra. Additional pentobarbital sodium (15 mg/kg, i.v.) is administered to arrest spontaneous respiration. Submaximal bronchoconstrictor responses are established in control animals by varying the dose-levels of leukotriene. Intravenous dose-levels for LTC4 range from 1 to 2 μg/kg and for LTD4 the range is from 0.3 to 1 μg/kg. The aerosol bronchoprovocation dose for LTC4 is generated from 1.6 μM solution and for LTD4 from a 2.0 μM solution.
# Test drugs are administered either intravenously, intraduodenally, by aerosol or orally at 1 or 10 minutes before induction of bronchospasm by administration of either LTC4 or LTD4 at the predetermined dose-levels. Aerosols of soluble drugs or leukotrienes are produced in-line for 10 seconds only by actuation of an ultrasonic nebulizer (Monaghan). Aerosolized drug dosage is expressed in terms of solution concentration and by a fixed aerosol exposure time (approximately 10 seconds). Control animals receive saline in place of drug.
# Respiratory volume changes are determined by a calibrated piston whose travel is recorded, via a linear transducer, on a Beckman Dynograph recorder. Maximal bronchoconstrictor volume is determined by clamping off the trachea at the end of the experiment. Overflow volumes at 1, 3 and 5 minutes are obtained from the recorded charts.
# The overflow volume at 1, 3 and 5 minutes is expressed as a percentage of maximal bronchoconstriction. Combined group values are used from each of these time intervals to determine the inhibitory effect of drugs. [formula] Students t-test for unpaired data is used to determine statistical significance. Dose response curves are generated and ED50 doses are interpolated from the regression lines.
# Results for a compound of the invention in this assay, using LTD4 for induction of bronchospasm, is given below: […]
Structure (SMILES),% Inhibition Overflow Volume at 3 min. [%],% Inhibition Overflow Volume at 5 min. [%]
"O=C1CCC(=O)N1c1cccc(OCc2nc3ccccc3s2)c1 [Example 1, N-[3-[(2-benzothiazolyl)methoxy]phenyl]pyrrolidin-2,5-dione]",63,68
"Cn1c(COc2cccc(N3C(=O)CCC3=O)c2)nc2ccccc21 [Example 2, N-[3-[(1-methyl-2-benzimidazolyl)methoxy]phenyl]pyrrpolidin-2,5-dione]",75,78
